The text below walks through data of patent US10564150B2, “Cell mediated immune response assay” (priority 2012, dated 2020).

Molecules are shown by their SMILES.

Assay [1] relates to whole blood from donors; IFN-gamma response to CMV antigens. In words: QFN CMV assay with four different non-reducing sugars. It is filed as cell-based, human. As to conditions: for response to the CMV antigens (percentage increase in IFN-gamma IU/ml over the non-additive tube): 2 mg/ml final blood concentration, 5 donors, background subtracted. On the procedure:
For this experiment, four different non-reducing sugars were added to QFN CMV antigen tubes and a corresponding Nil tube. To reach a final blood concentration of 2 mg/ml, a corresponding solution of sucrose, trehalose, mannitol and raffinose in PBS was added to whole blood obtained from 5 donors. […] The assay was run in accordance with the QFN package insert which is an established assay. The x-axis (see FIG. 3) indicates the tested conditions. The background (value from Nil tubes with/without the addition of the respective sugar) was subtracted from the corresponding CMV tube and the percentage increase in the IFN-gamma value (IU/ml) over the non-additive tube calculated (y axis).

The subject of assay [2] is blood from healthy donors; CD8+ T cells, IFN-gamma response to Cytomegalovirus peptides. In words: QFN-CMV assay with addition of trehalose. Format: cell-based, human. The protocol:
QuantiFERON (QFN) CMV is a CE registered assay monitoring T cell immune memory directed against antigens derived from the Cytomegalovirus. The QFN-CMV blood tubes contain peptides designed to specifically activate CD8+ T cells to produce interferon gamma (IFN-gamma). These tubes only contain peptide and heparin, with no addition of any sugar molecule.
This experiment aimed to investigate the effect on the IFN-gamma response when the non-reducing sugar, trehalose, was added to QFN-CMV tubes. 0, 1, 5 or 10 mg/ml of a trehalose (in water) solution was added to QFN-CMV blood collection tubes. 1 ml of blood from 17 healthy donors with a known anti-CMV T cell response was then added to each of the four tubes, and in addition a Nil tube and a Mitogen tube were run as controls. The QFN assay was then run according to the package insert. All values had the Nil value subtracted. IFN-gamma levels in IU/ml were normalized against the respective QFN-CMV+0 mg/ml trehalose (untreated control) to generate a ‘fold-change’ unit; to control for inter-donor variation in response magnitude. Healthy donors without a detectable anti-CMV immune response were included to control against non-specific IFN-gamma induction by trehalose.

The test system of assay [3] is whole blood from subjects with MTB infection; IFN-gamma response to Mycobacterium tuberculosis antigens ESAT-6 and CFP-10. In words: QFN-TB antigen tubes manufactured with or without trehalose. It is filed as cell-based, human. The note with it: trehalose tube versus sugar free tube; 20 subjects with MTB infection; paired one-tailed t test, P=0.0005.
Assay [4] has as its system whole blood IFN-gamma response to EBNA-1 from the Epstein-Barr virus. In words: QuantiFERON assay measuring anti-EBV cellular immune responses (EBNA-1 peptides) plus/minus trehalose. It is filed as cell-based. On the procedure: Investigations using QuantiFERON technology to measure responses to the model antigen EBNA-1 from the Epstein-Barr virus were performed to assess increases in assay sensitivity induced by the addition of non-reducing sugars to the incubation mixture. Briefly, EBNA-1 peptides were added to a blood collection tube, plus/minus 3 concentrations of a trehalose solution (0.5, 1.0 or 2.0 mg/ml trehalose). QuantiFERON assay measuring anti-EBV cellular immune responses was run according to the manufacturer's instructions. The IFN-gamma response was determined and compared depending on the concentration of trehalose. […] A concentration of 2 mg/ml trehalose provided the best results in this test assay.

As to `OC[C@@H](O)[C@@H](O)[C@H](O)[C@H](O)CO` [mannitol], in assay [1], the “response to the CMV antigens (percentage increase in IFN-gamma IU/ml over the non-additive tube)” value is “increased response”.

As to `OC[C@H]1O[C@H](OC[C@H]2O[C@H](O[C@]3(CO)O[C@H](CO)[C@@H](O)[C@@H]3O)[C@H](O)[C@@H](O)[C@@H]2O)[C@H](O)[C@@H](O)[C@H]1O` [raffinose], the “response to the CMV antigens (percentage increase in IFN-gamma IU/ml over the non-additive tube)” value in assay [1] is recorded as “increased response”.

Regarding `OC[C@H]1O[C@@](CO)(O[C@H]2O[C@H](CO)[C@@H](O)[C@H](O)[C@H]2O)[C@@H](O)[C@@H]1O` [sucrose], the “response to the CMV antigens (percentage increase in IFN-gamma IU/ml over the non-additive tube)” value in assay [1] is on record as “increased response”.

Take `OC[C@H]1O[C@H](O[C@H]2O[C@H](CO)[C@@H](O)[C@H](O)[C@H]2O)[C@H](O)[C@@H](O)[C@@H]1O` [trehalose]: the “mean level of IFN-gamma (fold change versus matched untreated control)” value in assay [2] (0, 1, 5 or 10 mg/ml trehalose, 17 healthy donors with known anti-CMV T cell response, Nil subtracted) is reported as “concentration-dependent increase”. Further, the “IFN-gamma fold change versus untreated control, significance” value in assay [2] (5 and 10 mg/ml trehalose, Friedmans test with Dunns multiple comparisons test) is reported as “significant increase”. The “background level of IFN-gamma in CMV-negative control donors” value in assay [2] (trehalose added, data not shown) is given as “No significant increase”. In addition, in assay [3], the “quantitative response of the assay (IFN-gamma IU/ml, nil subtracted)” value is “significantly enhanced”. Also, the IFN-gamma response entry in assay [4] (0.5, 1.0 or 2.0 mg/ml trehalose, with increasing concentration) is “increase in IFN-gamma response”. Besides, in assay [4] (of 0.5, 1.0 and 2.0 mg/ml tested), the “trehalose concentration providing the best results” value was 2 mg/mL. Also, the “response to the CMV antigens (percentage increase in IFN-gamma IU/ml over the non-additive tube)” value in assay [1] is “increased response”. In addition, the “rank of the increase among the four non-reducing sugars” value in assay [1] (2 mg/ml, order trehalose, mannitol, sucrose, raffinose) is “highest increase”.
